For data set [1], the system named is AR mRNA. Nature of the data set: Antisense inhibition of human AR in HuVEC cells, single concentration (electroporation, qRT-PCR RTS3559). It counts as cell-based. Summed up:
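HuVEC cells electroporated with antisense oligonucleotides at a single concentration. AR mRNA quantified by qRT-PCR using human primer-probe set RTS3559 and normalised to total RNA content by RIBOGREEN.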
A general note: Real-time PCR tracks product formation cycle by cycle.

Data set [2] deals with AR mRNA. Briefly: Dose-dependent antisense inhibition of human AR in HuVEC cells (electroporation, qRT-PCR RTS3559, IC50). In kind it is cell-based. The conditions noted are these: HuVEC. The essentials:
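HuVEC cells dosed with antisense oligonucleotides by electroporation and treated approximately 16 hours. AR mRNA quantified by real-time qPCR with primer probe set RTS3559 and normalised to total RNA by RIBOGREEN; IC50 from dose-response.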

The mark [3] stands for this setting: Table 36, electroporation, approximately 16 hours.
Setting [4] is: Table 34, electroporation, approximately 16 hours.
[5] abbreviates: 500 nM ASO, electroporation, ~24 h, Table 1.
The mark [6] stands for this setting: Table 29, electroporation, approximately 16 hours.

Oligonucleotides are written 5' to 3', each unit as a sugar letter and its base; * is a phosphorothioate linkage, no mark a phosphodiester; rarer units and linkages stand in square brackets, end groups in braces. Plain capitals give the bases only. e = 2'-O-(2-methoxyethyl) (MOE); k = constrained ethyl (cEt); [5mC] = 5-methylcytosine; d = 2'-deoxy (DNA)

For orientation: % inhibition means the drop in the measured response relative to a control, in per cent. In general, IC50 refers to the concentration that gives 50% inhibition. As to “569228 (antisense eT*eT*kG*kA*kT*dT*dT*dA*dA*dT*dG*dG*kT*kT*kG*e[5mC]) [compound 569228]”, the “% inhibition” value in data set [1] (250 nM ASO, ~24 h, Table 7) came out at 67%. Also, the “percent inhibition of AR” value is given as 26% in data set [2] (31.25 nM, ~16 h, Table 8); 43% in data set [2] (62.5 nM, ~16 h, Table 8); 29% in data set [2] (62.5 nM, ~16 h, Table 10); 62% in data set [2] (125.0 nM, ~16 h, Table 8); 44% in data set [2] (125.0 nM, ~16 h, Table 10); 88% in data set [2] (500.0 nM, ~16 h, Table 8). For the same substance, the “percent inhibition of AR” value in data set [2] (500.0 nM, ~16 h, Table 10) is 77%; in data set [2] (1000.0 nM, ~16 h, Table 8) it was 92%; in data set [2] (1000.0 nM, ~16 h, Table 10), 87%. For the same substance, the IC50 was found to be 90 nM in data set [2] (~16 h, Table 8) and 158 nM in data set [2] (~16 h, Table 10).

For “584233 (kG*kG*kA*dT*dT*d[5mC]*dT*d[5mC]*dT*dA*d[5mC]*dA*d[5mC]*kA*k[5mC]*kA; antisense) [compound 584233]”, the “% inhibition” value in data set [1] (Table 25, 1,000 nM oligonucleotide, electroporation, approximately 24 hours, relative to untreated control) came out at 62%. In data set [2] (setting [3]), the “percent inhibition of AR, 46.9 nM” value came to 0%; the “percent inhibition of AR, 187.5 nM” value is reported as 30%; the “percent inhibition of AR, 750.0 nM” value is given as 66%; the “percent inhibition of AR, 3000.0 nM” value was 86%. The IC50 in data set [2] (setting [3]) came out at 390 nM.

As for “584128 (kA*kT*kT*d[5mC]*dT*dT*dG*dA*d[5mC]*dT*dG*dT*d[5mC]*kT*kG*kA; antisense) [compound 584128]”, in data set [1] (Table 23, 500 nM oligonucleotide, electroporation, approximately 24 hours, relative to untreated control), the “% inhibition” value came to 38%. In data set [2] (setting [4]), the “percent inhibition of AR, 46.9 nM” value is listed as 20%; the “percent inhibition of AR, 187.5 nM” value came to 22%; the “percent inhibition of AR, 750.0 nM” value was found to be 41%; the “percent inhibition of AR, 3000.0 nM” value came to 72%. In addition, in data set [2] (setting [4]), the IC50 came out at 740 nM.

Regarding “549381 (kG*k[5mC]*k[5mC]*dG*d[5mC]*d[5mC]*dA*dG*dG*dG*dT*dA*d[5mC]*k[5mC]*kA*k[5mC]; antisense) [compound 549381]”, the “% inhibition” value in data set [1] (setting [5]) came out at 89%. Further, the “percent inhibition of AR” value was 14% in data set [2] (55.6 nM, ~16 h, Table 3); 33% in data set [2] (166.7 nM, ~16 h, Table 3); 71% in data set [2] (500.0 nM, ~16 h, Table 3); 91% in data set [2] (1500.0 nM, ~16 h, Table 3). Moreover, half-maximal inhibition in data set [2] (~16 h, Table 3) (IC50) required 261 nM.

For “583638 (antisense kT*kG*kA*dT*d[5mC]*dT*d[5mC]*dT*dG*dG*d[5mC]*dT*d[5mC]*k[5mC]*kG*k[5mC]) [compound 583638]”, the “% inhibition” value in data set [1] (500 nM ASO, ~24 h, Table 17) worked out at 51%. In data set [2] (setting [6]), the “percent inhibition of AR, 46.9 nM” value stood at 33%; the “percent inhibition of AR, 187.5 nM” value was 64%; the “percent inhibition of AR, 750.0 nM” value is 79%; the “percent inhibition of AR, 3000.0 nM” value was 85%. Moreover, half-maximal inhibition in data set [2] (setting [6]) (IC50) was put at 110 nM.

For “549377 (kA*kG*kG*dA*dT*dG*dA*dG*dG*dA*dA*dG*d[5mC]*kG*kG*k[5mC]; antisense) [compound 549377]”, the “% inhibition” value in data set [1] (setting [5]) is 90%. The “percent inhibition of AR” value in data set [2] (55.6 nM, ~16 h, Table 3) is 13%; in data set [2] (166.7 nM, ~16 h, Table 3), 52%; in data set [2] (500.0 nM, ~16 h, Table 3) it was 72%; in data set [2] (1500.0 nM, ~16 h, Table 3) it was 93%. Moreover, half-maximal inhibition in data set [2] (~16 h, Table 3) (IC50) was put at 216 nM.

Consider “549361 (kG*kA*k[5mC]*dA*d[5mC]*d[5mC]*dG*dA*d[5mC]*dA*d[5mC]*dT*dG*k[5mC]*k[5mC]*kT; antisense) [compound 549361]”, for which the “% inhibition” value in data set [1] (setting [5]) is reported as 84%. For the same substance, the “percent inhibition of AR” value in data set [2] (55.6 nM, ~16 h, Table 3) was determined as 12%; in data set [2] (166.7 nM, ~16 h, Table 3), 30%; in data set [2] (500.0 nM, ~16 h, Table 3), 52%; in data set [2] (1500.0 nM, ~16 h, Table 3) it was 66%. This substance displayed an IC50 in data set [2] (~16 h, Table 3) of 525 nM.

For the substance “583542 (antisense kA*k[5mC]*kA*dG*d[5mC]*dA*d[5mC]*dT*dG*dG*dA*dG*d[5mC]*kG*kG*k[5mC]) [compound 583542]”, in data set [1] (500 nM ASO, ~24 h, Table 16), the “% inhibition” value amounted to 45%. In addition, in data set [2] (setting [6]), the “percent inhibition of AR, 46.9 nM” value was found to be 9%; the “percent inhibition of AR, 187.5 nM” value came to 28%; the “percent inhibition of AR, 750.0 nM” value is on record as 47%; the “percent inhibition of AR, 3000.0 nM” value worked out at 66%. For the same substance, the concentration for half-maximal inhibition (IC50) in data set [2] (setting [6]) was found to be 900 nM.

These data come from USRE48461E1, “Modulation of androgen receptor expression” (Ionis Pharmaceuticals, Inc., priority 2012, dated 2021).
